Reference: patent US8076323B2, “Anti-inflammatory agents” (Cambridge Enterprise Limited, priority 2005, dated 2011)
Bridges are numbered along the chain shown (N, C = ends). Where no end group is shown, it is not given here. [ ]: non-standard residue; d: D form.

Assays:
[1] = test system: chemokine-induced migration; conditions: cited from earlier work
[2] = oral route or injection; comparable to dexamethasone; cited from earlier work
stability in human serum = type: in vitro ADME; conditions: 37° C.
[3] = test system: chemokine-induced migration; assay: chemokine-induced leukocyte migration in vitro (prior work); type: cell-based; conditions: compared with (S)-3-(undec-10-enoyl)-aminoglutarimide
[4] = cited from earlier work

Molecule: O=C1NCCCC[C@@H]1NC(=O)C12CC3CC(CC(C3)C1)C2 [(S)-3-(1′-adamantanecarbonylamino)caprolactam]
- inhibition of leukocyte migration or recruitment in vitro (in words) [1]: potent inhibitor
- anti-inflammatory activity in vivo (in words) [2]: powerful anti-inflammatory activity

Molecule: C=CCCCCCCCCC(=O)[C@@H]1CCCNC1=O [(S)-3-(undec-10-enoyl)-tetrahydropyridin-2-one]
- time completely stable in human serum (stability in human serum): at least 7 days
- potency compared with the parental molecule [3]: considerably reduced potency

Molecule: c(DCys-DGin-DIle-DTrp-DLys-DGln-DLys-DPro-DAsp-DLeu-DCys)-NH2 ([dC][dQ][dI][dW][dK][dQ][dK][dP][dD][dL][dC]-NH2; disulfide 1-11 (inferred)) [NR58-3.14.3]
- half-life period of clearance from blood plasma ([4]; after intravenous injection): less than 30 minutes
- oral bioavailability ([4]; in vivo, po): not orally bioavailable
